Counter-ions that a name gives are not always drawn.

`NCC1Cc2cccc(-c3ccccc3)c2O1` (single isomer, unassigned; (-)) (as salt: hydrochloride) [Example 38, (−)-1-(7-phenyl-2,3-dihydro-1-benzofuran-2-yl)methanamine]: the melting point was 220 to 222 °C.
The molecule `Cc1cccc(-c2cccc3c2OC(CN)C3)c1` (single isomer, unassigned; (-)) (as salt: hydrochloride) [Example 43, (−)-1-[7-(3-methylphenyl)-2,3-dihydro-1-benzofuran-2-yl]methanamine] displayed a melting point of 194 to 196 °C.
Then `Cc1ccccc1-c1cccc2c1OC(CN)C2` (single isomer, unassigned; (-)) (as salt: hydrochloride) [Example 49, (−)-1-[7-(2-methylphenyl)-2,3-dihydro-1-benzofuran-2-yl]methanamine], with 208 to 209 °C.
In turn, `NCC1Cc2cccc(-c3ccccc3F)c2O1` (single isomer, unassigned; (-)) (as salt: hydrochloride) [Example 52, (−)-1-[7-(2-fluorophenyl)-2,3-dihydro-1-benzofuran-2-yl]methanamine] had a melting point of 224 to 225 °C.
Then `NCC1Cc2cccc(-c3ccccc3C(F)(F)F)c2O1` (single isomer, unassigned; (-)) (as salt: hydrochloride) [Example 54, (−)-1-{7-[2-(trifluoromethyl)phenyl]-2,3-dihydro-1-benzofuran-2-yl}methanamine], with 109 to 111 °C; and `Cc1cccc(C)c1-c1cccc2c1OC(CN)C2` (single isomer, unassigned; (-)) (as salt: hydrochloride) [Example 57, (−)-1-[7-(2,6-dimethylphenyl)-2,3-dihydro-1-benzofuran-2-yl]methanamine], with 244 to 247 °C.
The same measure for `NCC1Cc2cc(F)cc(-c3ccccc3Cl)c2O1` (single isomer, unassigned; (-)) (as salt: hydrochloride) [Example 102, (−)-1-[7-(2-chlorophenyl)-5-fluoro-2,3-dihydro-1-benzofuran-2-yl]methanamine]: 206 to 209 °C.
Then `COc1cc2c(c(C(C)(C)C)c1)OC(CN)C2` (single isomer, unassigned; (-)) (as salt: hydrochloride) [Example 115, (−)-1-(7-tert-butyl-5-methoxy-2,3-dihydro-1-benzofuran-2-yl)methanamine], with 157 to 159 °C; and `NCC1Cc2c(cccc2-c2ccccc2C(F)(F)F)O1` (single isomer, unassigned; (-)) (as salt: hydrochloride) [Example 123, (−)-1-{4-[2-(trifluoromethyl)phenyl]-2,3-dihydro-1-benzofuran-2-yl}methanamine], with 203 to 206 °C; and `NCC1Cc2cccc(-c3ccccc3Cl)c2O1` (single isomer, unassigned; (-)) (as salt: hydrochloride) [Example 129, (−)-1-[7-(2-chlorophenyl)-2,3-dihydro-1-benzofuran-2-yl]methanamine], with 186 to 188 °C.
For `NCC1Cc2cccc(-c3cccc(C(F)(F)F)c3)c2O1` (single isomer, unassigned; (-)) (as salt: hydrochloride) [Example 135, (−)-1-{7-[3-(trifluoromethyl)phenyl]-2,3-dihydro-1-benzofuran-2-yl}methanamine], the melting point was 184 to 186 °C.
The same measure for `NCC1Cc2cccc(-c3c(Cl)cccc3Cl)c2O1` (single isomer, unassigned; (-)) (as salt: hydrochloride) [Example 141, (−)-1-[7-(2,6-dichlorophenyl)-2,3-dihydro-1-benzofuran-2-yl]methanamine]: 207 to 209 °C.
`COc1ccc(-c2cccc3c2OC(CN)C3)c(OC)c1` (single isomer, unassigned; (-)) (as salt: hydrochloride) [Example 144, (−)-1-[7-(2,4-dimethoxyphenyl)-2,3-dihydro-1-benzofuran-2-yl]methanamine] registered a melting point of 166 to 168 °C.
Then `NCC1Cc2cccc(-c3ccc(Cl)cc3Cl)c2O1` (single isomer, unassigned; (-)) (as salt: hydrochloride) [Example 149, (−)-1-[7-(2,4-dichlorophenyl)-2,3-dihydro-1-benzofuran-2-yl]methanamine], with 203 to 206 °C.
The same measure for `NCC1Cc2cc(F)cc(-c3ccccc3C(F)(F)F)c2O1` (single isomer, unassigned; (-)) (as salt: hydrochloride) [Example 151, (−)-1-{5-fluoro-7-[2-(trifluoromethyl)phenyl]-2,3-dihydro-1-benzofuran-2-yl}methanamine]: 183 to 188 °C; for `CNCC1Cc2cccc(-c3c(Cl)cccc3Cl)c2O1` (single isomer, unassigned; (-)) (as salt: hydrochloride) [Example 434, (−)-{[7-(2,6-dichlorophenyl)-2,3-dihydro-1-benzofuran-2-yl]methyl}methylamine]: 195 to 197 °C.

By melting point is commonly meant the temperature, or range, at which the solid turns liquid.

Values taken from patent US7435837B2, “Dihydrobenzofuranyl alkanamine derivatives and methods for using same” (Wyeth, priority 2003, dated 2008).
